In one experiment the target is EGFR L858R/T790M/C797S (Homo sapiens, UniProt P00533, C797S/L858R/T790M). Nature of the experiment: Biochemical EGFR kinase inhibition assay (Lance Ultra TR-FRET), triple mutant L858R/T790M/C797S. The procedure:
(§1) Biochemical EGFR kinase assays were conducted using Lance Ultra time-resolved fluorescence resonance energy transfer (TR-FRET) technology from Perkin-Elmer. Compounds of the invention were initially diluted to 20 mM in 100% DMSO for storage and made into kinase buffer solution to create a compound concentration ranging from 0.003 μM and 10 μM.
(§2) Each kinase reactions were incubated at room temperature for 1 hour and then stopped by the addition of 4 μL of stop solution (10 mM EDTA). The specific Europium-labeled-anti-phosphopeptide antibody (PerkinElmer, AD0069) diluted in LANCE detection buffer was then added to a final concentration of 2 nM. After 60 minutes incubation at room temperature the LANCE signal was measured on an EnVision Multilabel Reader (Perkin-Elmer). Excitation wavelength was set at 320 nm and emission monitored at 615 nm (donor) and 665 nm (acceptor). The IC50 values were determined using GraphPad prism software (GraphPad Software, Inc., San Diego, CA, USA).
In general terms: TR-FRET usually uses a lanthanide donor and a delayed reading to cut background.

The target in another experiment is EGFR Del19/C797S (Homo sapiens, UniProt P00533, C797S/DEL746-750). Nature of the experiment: Biochemical EGFR kinase inhibition assay (Lance Ultra TR-FRET), double mutant del19/C797S. The procedure:
as §1, §2

The target in a further experiment is EGFR wildtype (WT) (Homo sapiens, UniProt P00533). Nature of the experiment: Biochemical EGFR kinase inhibition assay (Lance Ultra TR-FRET), wildtype. The procedure:
as §1, §2

Another experiment concerns the target EGFR Del19/T790M/C797S (Homo sapiens, UniProt P00533, C797S/DEL746-750/T790M). Nature of the experiment: Biochemical EGFR kinase inhibition assay (Lance Ultra TR-FRET), triple mutant del19/T790M/C797S. The procedure:
as §1, §2

[1] abbreviates: Km ATP, read-out: IC50 L858R/T790M/C797S (nM) Km ATP.
[2] abbreviates: Km ATP, read-out: IC50 Del19/C797S (nM) Km ATP.
Setting [3] is: Km ATP, read-out: IC50 WT (nM) Km ATP.
Where [4] appears, read: Km ATP, read-out: IC50 Del19/T790M/C797S (nM) Km ATP.
Setting [5] is: IC50 Del19/C797S (nM), 100 μM ATP.
[6] abbreviates: ATP at Km, read-out: IC50 WT (nM), Km ATP.
[7] abbreviates: ATP at Km, read-out: IC50 Del19/T790M/C797S (nM), Km ATP.
Where [8] appears, read: IC50 L858R/T790M/C797S (nM), 100 μM ATP.
[9] abbreviates: ATP at Km, read-out: IC50 Del19/C797S (nM), Km ATP.
[10] abbreviates: IC50 Del19/T790M/C797S (nM), 100 μM ATP.

14 compounds from patent US11981658B2, “Substituted aminopyridine compounds as EGFR inhibitors” (YUHAN CORPORATION, priority 2021, dated 2024) can be followed below.

Each structure is given as a SMILES string. Like-named read-outs stand apart in the source and are kept apart here.

EGFR wildtype (WT), sequence (P00533 25-1210): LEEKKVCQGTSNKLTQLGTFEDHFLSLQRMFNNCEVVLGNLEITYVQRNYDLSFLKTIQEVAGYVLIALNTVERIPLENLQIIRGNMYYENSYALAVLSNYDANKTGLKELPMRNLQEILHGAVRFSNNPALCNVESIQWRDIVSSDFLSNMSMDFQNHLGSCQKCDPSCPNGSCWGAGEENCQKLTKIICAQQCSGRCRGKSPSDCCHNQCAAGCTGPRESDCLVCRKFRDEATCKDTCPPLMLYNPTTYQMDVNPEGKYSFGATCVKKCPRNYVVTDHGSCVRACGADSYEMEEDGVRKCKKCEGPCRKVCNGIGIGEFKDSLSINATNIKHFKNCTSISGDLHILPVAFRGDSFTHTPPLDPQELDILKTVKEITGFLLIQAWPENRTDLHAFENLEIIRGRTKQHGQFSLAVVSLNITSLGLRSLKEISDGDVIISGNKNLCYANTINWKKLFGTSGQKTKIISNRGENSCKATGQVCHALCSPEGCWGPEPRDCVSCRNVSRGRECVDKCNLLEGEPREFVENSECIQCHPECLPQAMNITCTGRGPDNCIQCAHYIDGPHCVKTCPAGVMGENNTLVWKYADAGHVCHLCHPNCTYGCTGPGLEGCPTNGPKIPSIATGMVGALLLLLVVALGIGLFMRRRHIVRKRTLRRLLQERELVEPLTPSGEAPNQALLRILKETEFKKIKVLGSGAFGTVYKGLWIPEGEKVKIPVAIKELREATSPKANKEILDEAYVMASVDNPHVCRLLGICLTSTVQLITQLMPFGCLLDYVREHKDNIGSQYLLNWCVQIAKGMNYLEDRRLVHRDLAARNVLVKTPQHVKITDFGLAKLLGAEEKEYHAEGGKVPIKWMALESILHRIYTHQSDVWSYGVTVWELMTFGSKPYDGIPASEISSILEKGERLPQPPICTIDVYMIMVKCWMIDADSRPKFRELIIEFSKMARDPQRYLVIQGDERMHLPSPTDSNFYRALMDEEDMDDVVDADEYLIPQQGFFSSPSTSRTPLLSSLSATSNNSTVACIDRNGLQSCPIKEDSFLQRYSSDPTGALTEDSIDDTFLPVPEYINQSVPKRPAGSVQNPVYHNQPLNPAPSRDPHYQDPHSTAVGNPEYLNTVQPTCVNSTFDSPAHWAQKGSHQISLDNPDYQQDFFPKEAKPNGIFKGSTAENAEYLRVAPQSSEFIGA
EGFR Del19/T790M/C797S, sequence (P00533 with tags, fused parts or gaps DEL746-750/T790M/C797S): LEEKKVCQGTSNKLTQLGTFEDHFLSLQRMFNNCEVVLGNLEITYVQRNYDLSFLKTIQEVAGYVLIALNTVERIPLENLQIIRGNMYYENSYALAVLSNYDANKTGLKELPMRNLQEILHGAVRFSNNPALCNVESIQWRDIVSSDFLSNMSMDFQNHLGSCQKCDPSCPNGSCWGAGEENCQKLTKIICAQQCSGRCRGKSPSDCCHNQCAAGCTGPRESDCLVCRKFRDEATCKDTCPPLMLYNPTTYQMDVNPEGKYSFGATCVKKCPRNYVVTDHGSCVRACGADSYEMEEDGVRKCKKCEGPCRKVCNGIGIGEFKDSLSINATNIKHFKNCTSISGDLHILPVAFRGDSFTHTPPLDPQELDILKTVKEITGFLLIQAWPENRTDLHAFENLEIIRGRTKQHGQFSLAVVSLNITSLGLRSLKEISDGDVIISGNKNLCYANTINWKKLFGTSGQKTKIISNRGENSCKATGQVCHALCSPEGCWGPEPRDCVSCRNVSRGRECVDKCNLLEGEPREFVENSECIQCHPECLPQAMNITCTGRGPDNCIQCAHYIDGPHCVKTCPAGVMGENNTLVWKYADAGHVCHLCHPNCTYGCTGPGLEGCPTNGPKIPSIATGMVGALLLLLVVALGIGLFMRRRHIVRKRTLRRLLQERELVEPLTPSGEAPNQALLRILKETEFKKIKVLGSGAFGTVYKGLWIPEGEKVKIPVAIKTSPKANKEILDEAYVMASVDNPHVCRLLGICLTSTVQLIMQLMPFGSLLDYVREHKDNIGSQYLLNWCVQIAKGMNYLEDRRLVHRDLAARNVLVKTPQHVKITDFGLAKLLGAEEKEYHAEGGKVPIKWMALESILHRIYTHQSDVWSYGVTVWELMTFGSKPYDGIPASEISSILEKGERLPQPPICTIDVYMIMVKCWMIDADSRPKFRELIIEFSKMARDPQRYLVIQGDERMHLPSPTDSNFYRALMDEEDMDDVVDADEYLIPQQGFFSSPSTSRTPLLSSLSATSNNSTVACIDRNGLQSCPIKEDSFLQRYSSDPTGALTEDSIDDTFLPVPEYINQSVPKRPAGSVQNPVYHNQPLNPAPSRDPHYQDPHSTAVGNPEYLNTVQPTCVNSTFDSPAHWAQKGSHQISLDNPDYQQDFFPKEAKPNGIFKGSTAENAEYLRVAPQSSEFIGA
EGFR Del19/C797S, sequence (P00533 with tags, fused parts or gaps DEL746-750/C797S): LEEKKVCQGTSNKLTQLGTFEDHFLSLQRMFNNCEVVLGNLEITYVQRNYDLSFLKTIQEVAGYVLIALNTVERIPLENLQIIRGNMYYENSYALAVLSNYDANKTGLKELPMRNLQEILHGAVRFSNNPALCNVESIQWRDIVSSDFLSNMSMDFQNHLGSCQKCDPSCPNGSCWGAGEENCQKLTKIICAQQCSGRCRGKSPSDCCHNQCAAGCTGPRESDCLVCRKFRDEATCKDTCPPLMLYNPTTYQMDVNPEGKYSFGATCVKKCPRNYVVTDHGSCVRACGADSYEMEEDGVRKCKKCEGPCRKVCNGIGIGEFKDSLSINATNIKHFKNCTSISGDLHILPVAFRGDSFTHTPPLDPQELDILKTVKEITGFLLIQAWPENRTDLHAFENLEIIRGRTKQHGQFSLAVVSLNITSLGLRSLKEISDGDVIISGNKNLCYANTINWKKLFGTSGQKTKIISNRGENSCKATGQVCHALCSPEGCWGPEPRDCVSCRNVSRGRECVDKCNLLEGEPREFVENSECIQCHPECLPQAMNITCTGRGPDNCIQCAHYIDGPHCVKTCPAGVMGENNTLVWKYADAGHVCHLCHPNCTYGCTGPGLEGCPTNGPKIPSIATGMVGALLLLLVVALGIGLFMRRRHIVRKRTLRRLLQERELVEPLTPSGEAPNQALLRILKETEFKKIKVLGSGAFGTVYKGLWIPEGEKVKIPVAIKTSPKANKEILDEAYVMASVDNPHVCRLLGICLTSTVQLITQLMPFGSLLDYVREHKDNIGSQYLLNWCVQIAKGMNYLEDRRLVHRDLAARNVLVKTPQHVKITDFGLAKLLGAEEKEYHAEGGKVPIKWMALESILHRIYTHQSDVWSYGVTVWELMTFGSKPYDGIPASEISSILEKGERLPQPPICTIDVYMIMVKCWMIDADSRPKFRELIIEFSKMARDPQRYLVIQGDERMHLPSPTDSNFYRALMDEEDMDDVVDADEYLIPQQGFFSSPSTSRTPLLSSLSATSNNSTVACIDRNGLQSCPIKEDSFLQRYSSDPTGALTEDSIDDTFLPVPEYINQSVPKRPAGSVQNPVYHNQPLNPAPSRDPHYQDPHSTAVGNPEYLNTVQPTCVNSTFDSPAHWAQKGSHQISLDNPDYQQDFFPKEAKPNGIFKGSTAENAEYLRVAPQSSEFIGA
EGFR L858R/T790M/C797S, sequence (P00533 25-1210 T790M/C797S/L858R): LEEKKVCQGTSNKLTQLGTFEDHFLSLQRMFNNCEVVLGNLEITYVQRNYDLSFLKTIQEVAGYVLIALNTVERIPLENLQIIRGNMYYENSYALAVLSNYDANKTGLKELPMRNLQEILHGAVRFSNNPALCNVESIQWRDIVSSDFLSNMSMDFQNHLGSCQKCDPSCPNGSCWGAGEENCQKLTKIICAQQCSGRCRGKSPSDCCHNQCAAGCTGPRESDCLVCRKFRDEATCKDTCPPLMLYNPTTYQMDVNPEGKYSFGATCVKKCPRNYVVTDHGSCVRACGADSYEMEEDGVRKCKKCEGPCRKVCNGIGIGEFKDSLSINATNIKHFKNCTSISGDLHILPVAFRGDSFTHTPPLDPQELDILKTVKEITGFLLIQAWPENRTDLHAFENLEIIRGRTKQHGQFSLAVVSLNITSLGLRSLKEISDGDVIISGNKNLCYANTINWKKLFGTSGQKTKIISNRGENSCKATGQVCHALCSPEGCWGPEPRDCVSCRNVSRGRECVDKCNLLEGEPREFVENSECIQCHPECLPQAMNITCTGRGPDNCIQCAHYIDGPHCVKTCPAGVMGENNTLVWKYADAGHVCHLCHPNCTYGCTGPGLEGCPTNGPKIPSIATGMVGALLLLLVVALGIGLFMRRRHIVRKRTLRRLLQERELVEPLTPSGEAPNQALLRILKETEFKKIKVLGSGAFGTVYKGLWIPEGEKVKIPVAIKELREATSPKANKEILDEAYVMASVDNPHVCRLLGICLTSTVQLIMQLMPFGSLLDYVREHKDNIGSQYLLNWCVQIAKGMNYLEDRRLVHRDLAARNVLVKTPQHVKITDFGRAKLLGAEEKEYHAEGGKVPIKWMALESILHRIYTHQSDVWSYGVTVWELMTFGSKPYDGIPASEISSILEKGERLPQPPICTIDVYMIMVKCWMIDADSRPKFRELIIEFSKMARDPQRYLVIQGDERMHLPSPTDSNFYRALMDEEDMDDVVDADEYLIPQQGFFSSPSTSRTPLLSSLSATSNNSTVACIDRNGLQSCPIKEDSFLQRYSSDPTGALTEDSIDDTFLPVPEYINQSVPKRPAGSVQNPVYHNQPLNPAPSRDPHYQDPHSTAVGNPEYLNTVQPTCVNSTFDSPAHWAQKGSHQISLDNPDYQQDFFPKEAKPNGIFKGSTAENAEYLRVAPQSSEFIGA

`Cn1cc(-c2cc(Nc3ccnc(-c4cnn(S(=O)(=O)C5CC5)c4)n3)ncc2C#Cc2cnn(CCF)c2)cn1` [Example 234, 2-(1-(Cyclopropylsulfonyl)-1H-pyrazol-4-yl)-N-(5-((1-(2-fluoroethyl)-1H-pyrazol-4-yl)ethynyl)-4-(1-methyl-1H-pyrazol-4-yl)pyridin-2-yl)pyrimidin-4-amine]: the IC50 at EGFR L858R/T790M/C797S (setting [1]) is 16.1 nM; at EGFR Del19/C797S (setting [2]), 214 nM; at EGFR wildtype (WT) (setting [3]), 1010 nM; on EGFR Del19/T790M/C797S (setting [4]), 4.1 nM.

For `CCC(C)Oc1cc(Nc2ccnc(-c3cnn(S(=O)(=O)C4CC4)c3)n2)ncc1C#Cc1cnn(C(C)C)c1` (stereo not shown) [Example 57, N-(4-(sec-Butoxy)-5-((1-isopropyl-1H-pyrazol-4-yl)ethynyl)pyridin-2-yl)-2-(1-(cyclopropylsulfonyl)-1H-pyrazol-4-yl)pyrimidin-4-amine], the IC50 at EGFR L858R/T790M/C797S (setting [1]) came to 26.1 nM; at EGFR Del19/C797S (setting [2]), 493 nM; at EGFR Del19/T790M/C797S (setting [4]), 13.9 nM.

`CC(C)Nc1cc(Nc2ccnc(-c3cnn(S(=O)(=O)C4CC4)c3)n2)ncc1C#CC(C)(C)O` [Example 204, 4-(6-((2-(1-(Cyclopropylsulfonyl)-1H-pyrazol-4-yl)pyrimidin-4-yl)amino)-4-(isopropylamino)pyridin-3-yl)-2-methylbut-3-yn-2-ol]: the IC50 against EGFR Del19/C797S (setting [5]) was 187 nM; at EGFR wildtype (WT) (setting [6]), 264 nM; on EGFR wildtype (WT) (IC50 WT (nM), 100 μM ATP), above 10000 nM; on EGFR Del19/T790M/C797S (setting [7]), 22.7 nM.

As for `CCS(=O)(=O)N1CCN(c2cc(Nc3ccnc(-c4cnn(S(=O)(=O)C5CC5)c4)n3)ncc2C#Cc2cnn(C)c2)CC1` [Example 3, 2-(1-(Cyclopropylsulfonyl)-1H-pyrazol-4-yl)-N-(4-(4-(ethylsulfonyl)piperazin-1-yl)-5-((1-methyl-1H-pyrazol-4-yl)ethynyl)pyridin-2-yl)pyrimidin-4-amine], the IC50 worked out at 240 nM at EGFR Del19/C797S (setting [2]), 3830 nM at EGFR wildtype (WT) (setting [3]) and 6.6 nM on EGFR Del19/T790M/C797S (setting [4]).

Turning to `CC(C)Nc1cc(Nc2ccnc(-c3cnn(S(=O)(=O)C4CC4)c3)n2)ncc1C#Cc1csc(CF)n1` [Example 200, N^2-(2-(1-(cyclopropylsulfonyl)-1H-pyrazol-4-yl)pyrimidin-4-yl)-5-((2-(fluoromethyl)thiazol-4-yl)ethynyl)-N^4-isopropylpyridine-2,4-diamine], the IC50 at EGFR L858R/T790M/C797S (setting [8]) was 29.8 nM; at EGFR Del19/C797S (setting [9]), 350 nM; at EGFR Del19/C797S (setting [5]) it was 1000 nM; at EGFR wildtype (WT) (setting [6]) it was 4100 nM; on EGFR wildtype (WT) (IC50 WT (nM), 100 μM ATP), above 10000 nM; at EGFR Del19/T790M/C797S (setting [7]), 12.6 nM. The compound further came in with an IC50 against EGFR Del19/T790M/C797S (setting [10]) of 11.3 nM.

Regarding `CC(C)Nc1cc(Nc2ccnc(-c3cnn(S(=O)(=O)C4CC4)c3)n2)ncc1C#Cc1cnn(C(C)C)c1` [Example 19, N^2-(2-(1-(Cyclopropylsulfonyl)-1H-pyrazol-4-yl)pyrimidin-4-yl)-N^4-isopropyl-5-((1-isopropyl-1H-pyrazol-4-yl)ethynyl)pyridine-2,4-diamine], the IC50 was 3.7 nM at EGFR L858R/T790M/C797S (setting [8]); 2.3 nM at EGFR L858R/T790M/C797S (setting [1]); 140 nM against EGFR Del19/C797S (setting [5]); 41.8 nM on EGFR Del19/C797S (setting [2]); above 10000 nM at EGFR wildtype (WT) (IC50 WT (nM), 100 μM ATP); 1680 nM at EGFR wildtype (WT) (setting [3]). For the same compound, the IC50 came to 5.4 nM against EGFR Del19/T790M/C797S (setting [10]) and 4.4 nM at EGFR Del19/T790M/C797S (setting [4]).

For `O=S(=O)(C1CC1)n1cc(-c2nccc(Nc3cc(-c4cnn(C5CC5)c4)c(C#Cc4cnn(CCF)c4)cn3)n2)cn1` [Example 237, N-(4-(1-Cyclopropyl-1H-pyrazol-4-yl)-5-((1-(2-fluoroethyl)-1H-pyrazol-4-yl)ethynyl)pyridin-2-yl)-2-(1-(cyclopropylsulfonyl)-1H-pyrazol-4-yl)pyrimidin-4-amine], the IC50 on EGFR L858R/T790M/C797S (setting [1]) was found to be 16.5 nM; at EGFR Del19/C797S (setting [2]) it was 232 nM; at EGFR wildtype (WT) (setting [3]) it was 2720 nM; at EGFR Del19/T790M/C797S (setting [4]), 5.5 nM.

As to `CCC(C)Nc1cc(Nc2ccnc(-c3cnn(S(=O)(=O)C4CC4)c3)n2)ncc1C#Cc1cnn(C(C)C)c1` (stereo not shown) [Example 25, N^4-(sec-Butyl)-N^2-(2-(1-(cyclopropylsulfonyl)-1H-pyrazol-4-yl)pyrimidin-4-yl)-5-((1-isopropyl-1H-pyrazol-4-yl)ethynyl)pyridine-2,4-diamine], the IC50 on EGFR L858R/T790M/C797S (setting [1]) is 6.5 nM; at EGFR Del19/C797S (setting [2]), 105 nM; at EGFR wildtype (WT) (setting [3]) it was 915 nM; at EGFR Del19/T790M/C797S (setting [4]) it was 6.9 nM.

As for `CC(C)Nc1cc(Nc2ccnc(-c3cnn(S(=O)(=O)C4CC4)c3)n2)ncc1C#Cc1csc(C2CC2)n1` [Example 205, N^2-(2-(1-(Cyclopropylsulfonyl)-1H-pyrazol-4-yl)pyrimidin-4-yl)-5-((2-cyclopropylthiazol-4-yl)ethynyl)-N^4-isopropylpyridine-2,4-diamine], the figures for the IC50 at EGFR Del19/C797S (setting [9]), at EGFR wildtype (WT) (setting [6]) and on EGFR Del19/T790M/C797S (setting [7]) were 265 nM, 587 nM and 18.3 nM, respectively.

Regarding `CN(CCO)c1cc(Nc2ccnc(-c3cnn(S(=O)(=O)C4CC4)c3)n2)ncc1C#Cc1cnn(CCF)c1` [Example 38, 2-((2-((2-(1-(Cyclopropylsulfonyl)-1H-pyrazol-4-yl)pyrimidin-4-yl)amino)-5-((1-(2-fluoroethyl)-1H-pyrazol-4-yl)ethynyl)pyridin-4-yl)(methyl)amino)ethan-1-ol], the IC50 is 464 nM against EGFR Del19/C797S (setting [5]); above 10000 nM at EGFR wildtype (WT) (IC50 WT (nM), 100 μM ATP); 368 nM on EGFR wildtype (WT) (setting [3]); 17.6 nM at EGFR Del19/T790M/C797S (setting [4]).

For `CC(C)Oc1cc(Nc2ccnc(-c3cnn(S(=O)(=O)C4CC4)c3)n2)ncc1C#Cc1cnn(CCF)c1` [Example 55, 2-(1-(Cyclopropylsulfonyl)-1H-pyrazol-4-yl)-N-(5-((1-(2-fluoroethyl)-1H-pyrazol-4-yl)ethynyl)-4-isopropoxypyridin-2-yl)pyrimidin-4-amine], the IC50 came out at 19.1 nM at EGFR L858R/T790M/C797S (setting [1]), 398 nM at EGFR Del19/C797S (setting [2]), 2630 nM at EGFR wildtype (WT) (setting [3]) and 7 nM on EGFR Del19/T790M/C797S (setting [4]).

In the case of `CN(CCO)c1cc(Nc2ccnc(-c3cnn(S(=O)(=O)C4CC4)c3)n2)ncc1C#Cc1cnn(C)c1` [Example 37, 2-((2-((2-(1-(Cyclopropylsulfonyl)-1H-pyrazol-4-yl)pyrimidin-4-yl)amino)-5-((1-methyl-1H-pyrazol-4-yl)ethynyl)pyridin-4-yl)(methyl)amino)ethan-1-ol], the IC50 against EGFR Del19/C797S (setting [5]) is 870 nM; at EGFR wildtype (WT) (IC50 WT (nM), 100 μM ATP), above 10000 nM; at EGFR wildtype (WT) (setting [3]) it was 435 nM; on EGFR Del19/T790M/C797S (setting [4]), 20.2 nM.

`CC(C)n1cc(C#Cc2cnc(Nc3ccnc(-c4cnn(S(=O)(=O)C5CC5)c4)n3)cc2-c2cnn(C3CC3)c2)cn1` [Example 236, N-(4-(1-cyclopropyl-1H-pyrazol-4-yl)-5-((1-isopropyl-1H-pyrazol-4-yl)ethynyl)pyridin-2-yl)-2-(1-(cyclopropylsulfonyl)-1H-pyrazol-4-yl)pyrimidin-4-amine]: the IC50 came to 45.3 nM on EGFR L858R/T790M/C797S (setting [1]), 359 nM at EGFR Del19/C797S (setting [2]) and 11.3 nM at EGFR Del19/T790M/C797S (setting [4]).

`CC(C)Nc1cc(Nc2ccnc(-c3cnn(S(=O)(=O)C4CC4)c3)n2)ncc1C#CC1CCOCC1` [Example 206, N^2-(2-(1-(Cyclopropylsulfonyl)-1H-pyrazol-4-yl)pyrimidin-4-yl)-N^4-isopropyl-5-((tetrahydro-2H-pyran-4-yl)ethynyl)pyridine-2,4-diamine]: the IC50 at EGFR Del19/C797S (setting [9]) is 69.1 nM; at EGFR wildtype (WT) (setting [6]), 201 nM; at EGFR Del19/T790M/C797S (setting [7]), 3.5 nM.
